Test results from patent US9150519B2, “6-amino-pyrimidine-4-carboxamide derivatives and related compounds which bind to the sphingosine 1-phosphate (S1P) receptor for the treatment of multiple sclerosis” (MERCK SERONO SA, priority 2007, dated 2015).

Tests used:
S1P1 = S1P1 (Homo sapiens (Human), UniProt P21453); assay: 35S-GTPγS binding assay, S1P1 membranes; assay type: biochemical; conditions: membranes from CHO cells expressing S1P1; read-out: S1P1 GTPyS EC50
Protocol: Membranes were prepared from CHO cells expressing S1P1 or S1P3 for use in ligand and […] binding studies. Cells were suspended in 50 mM TRIS, pH 7.4, 2 mM EDTA, 250 mM Sucrose (buffer A) and 1× Complete protease inhibitor cocktail (Roche), and disrupted at 4° C. by nitrogen decompression using a cell disruption bomb (Parr Instrument). Following centrifugation at 1000 RPM for 10 min at 4° C., the supernatant was suspended in buffer A and centrifuged again at 19000 RPM for 60 min at 4° C. The pellet was then suspended in 10 mM HEPES, pH 7.4, 1 mM EDTA, 250 mM Sucrose (Buffer B), and 1× Complete EDTA-free protease inhibitor cocktail and homogenized using a potter. Membranes were flash frozen in liquid nitrogen and stored at −80° C. [33P]sphingosine 1-phosphate (3000 Ci/mmol; American Radiolabeled Chemicals, Inc.) was added to test compounds in DMSO. […] Binding was performed for 60 min at room temperature on a shaker and bound radioactivity was measured on a PerkinElmer 1450 MicroBeta counter. Specific binding was calculated by subtracting remaining radioactivity in the presence of 1000-fold excess of unlabeled S1P. Binding data were analyzed using the GraphPad Prism program.
(§1) The assay was initiated with the addition of 20 μl of 1.5 nM [35S]-GTPγS (1100 Ci/mmol; GE Healthcare) in assay buffer. After 60 min incubation at 30° C. on a shaker, plates were centrifuged for 10 min at 2000 RPM. Supernatant was discarded and membrane bound radioactivity was measured on a PerkinElmer 1450 MicroBeta counter. Triplicate samples were averaged and expressed as % response relative to SIP activation in absence of compound (n=2).

S1P3 = S1P3 (Homo sapiens (Human), UniProt Q99500); assay: 35S-GTPγS binding assay, S1P3 membranes; assay type: biochemical; conditions: membranes from CHO cells expressing S1P3; read-out: S1P3 GTPyS EC50
Protocol: Membranes were prepared from CHO cells expressing S1P1 or S1P3 for use in ligand and […] binding studies. Cells were suspended in 50 mM TRIS, pH 7.4, 2 mM EDTA, 250 mM Sucrose (buffer A) and 1× Complete protease inhibitor cocktail (Roche), and disrupted at 4° C. by nitrogen decompression using a cell disruption bomb (Parr Instrument). Following centrifugation at 1000 RPM for 10 min at 4° C., the supernatant was suspended in buffer A and centrifuged again at 19000 RPM for 60 min at 4° C. The pellet was then suspended in 10 mM HEPES, pH 7.4, 1 mM EDTA, 250 mM Sucrose (Buffer B), and 1× Complete EDTA-free protease inhibitor cocktail and homogenized using a potter. Membranes were flash frozen in liquid nitrogen and stored at −80° C. [33P]sphingosine 1-phosphate (3000 Ci/mmol; American Radiolabeled Chemicals, Inc.) was added to test compounds in DMSO. Membranes and WGA SPA beads (GE Healthcare) were added to give a final volume of 100 μl in 96-well plates with assay concentrations of […] [33P]sphingosine 1-phosphate (respectively for S1P1 or S1P3), 50 mM HEPES, pH 7.5, 5 mM MgCl2, 100 mM NaCl, 0.4% fatty acid-free BSA, 1-5 μg/well of proteins and 100 μg/well of WGA SPA beads. Binding was performed for 60 min at room temperature on a shaker and bound radioactivity was measured on a PerkinElmer 1450 MicroBeta counter. Specific binding was calculated by subtracting remaining radioactivity in the presence of 1000-fold excess of unlabeled S1P. Binding data were analyzed using the GraphPad Prism program.
as §1, with “Measurements of ^35S-GTPγS Binding: Membranes (1 to 10 μg protein) prepared as described above, were incubated in 96-well Scintiplates (PerkinElmer) with test compounds diluted in DMSO, in 180 μl of 20 mM HEPES, pH 7.4, 10 mM MgCl2, 2 μg/well Saponin, 0.2% fatty acid free BSA (Assay buffer), 140 mM NaCl and 1.7 μM GDP. The” for “The”

Chain of S1P1 (P21453 whole entry, species assumed): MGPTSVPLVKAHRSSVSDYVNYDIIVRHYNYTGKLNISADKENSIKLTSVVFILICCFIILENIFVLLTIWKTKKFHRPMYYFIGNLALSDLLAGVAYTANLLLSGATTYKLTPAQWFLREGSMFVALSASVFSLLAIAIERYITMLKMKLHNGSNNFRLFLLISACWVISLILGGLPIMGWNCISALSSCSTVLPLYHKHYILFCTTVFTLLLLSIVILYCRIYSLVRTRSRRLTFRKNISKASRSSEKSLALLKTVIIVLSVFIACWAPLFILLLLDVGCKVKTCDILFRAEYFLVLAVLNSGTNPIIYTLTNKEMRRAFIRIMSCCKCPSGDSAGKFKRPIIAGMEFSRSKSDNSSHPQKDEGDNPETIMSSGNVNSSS
Chain of S1P3 (Q99500 whole entry, species assumed): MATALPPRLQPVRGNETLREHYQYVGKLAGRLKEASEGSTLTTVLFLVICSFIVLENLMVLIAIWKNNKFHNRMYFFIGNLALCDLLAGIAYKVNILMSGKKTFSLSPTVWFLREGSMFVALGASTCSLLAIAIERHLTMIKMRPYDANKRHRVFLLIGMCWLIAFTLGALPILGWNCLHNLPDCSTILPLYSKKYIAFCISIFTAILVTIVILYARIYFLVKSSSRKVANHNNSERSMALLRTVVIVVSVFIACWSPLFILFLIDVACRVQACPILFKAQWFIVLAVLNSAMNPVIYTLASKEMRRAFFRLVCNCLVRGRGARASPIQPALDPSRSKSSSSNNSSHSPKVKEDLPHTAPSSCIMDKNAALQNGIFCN

| SMILES | EC50 (S1P1) | EC50 (S1P3) |
| --- | --- | --- |
| CCCN(CC1CC1)c1cc(C(=O)Nc2ccc3[nH]ncc3c2)ncn1 [Example 1-45] | 13 nM | 416 nM |
| O=C(Nc1ccnc2ccccc12)c1cc(N(CC2CC2)C2CCCCC2)ncn1 [Example 1-46] | 19 nM | 1160 nM |
| Cc1cc2[nH]ncc2cc1NC(=O)c1cc(N(CC2CC2)C2CCCCC2)ncn1 [Example 1-47] | 6 nM | 3270 nM |
| CCCN(c1cc(C(=O)Nc2ccc(S(N)(=O)=O)cc2C)ncn1)C1CCCCC1 [Example 1-54] | 2.9 nM | 1990 nM |
| CCCN(CCC)c1cc(C(=O)Nc2ccc(S(N)(=O)=O)cc2C)ncn1 [Example 1-57] | 36 nM | > 20000 nM |
| Cc1cc(S(N)(=O)=O)ccc1NC(=O)c1cc(N(CC(C)C)C2CCCC2)ncn1 [Example 1-58] | 39 nM | > 20000 nM |
| CCCN(c1cc(C(=O)Nc2ccc(S(N)(=O)=O)cc2C)ncn1)C(C)C [Example 1-60] | 51 nM | > 20000 nM |
| Cc1cc(S(=O)(=O)NCC(=O)O)ccc1NC(=O)c1cc(N(CC2CC2)C2CCCCC2)ncn1 [Example 1-61] | 12 nM | 259 nM |
| CCCN(CC1CC1)c1cc(C(=O)Nc2cc3cn[nH]c3cc2C)ncn1 [Example 1-71] | 12 nM | > 20000 nM |
| COC(=O)CCNCc1ccc(NC(=O)c2cc(N(CC3CC3)C3CCCCC3)ncn2)cc1 [Example 1-76] | 48 nM | 777 nM |
| CNS(=O)(=O)c1ccc(NC(=O)c2cc(N(CC3CC3)C3CCCCC3)ncn2)c(C)c1 [Example 1-105] | 5.8 nM | 2470 nM |
| COCCNS(=O)(=O)c1ccc(NC(=O)c2cc(N(CC3CC3)C3CCCCC3)ncn2)c(C)c1 [Example 1-107] | 19 nM | 3300 nM |
| CCCN(CC1CC1)c1cc(C(=O)Nc2ccc(S(=O)(=O)NC)cc2C)ncn1 [Example 1-109] | 63 nM | > 20000 nM |
| O=C(Nc1cccc2[nH]ccc12)c1cc(N(CC2CC2)C2CCCCC2)ncn1 [Example 1-126] | 6 nM | > 20000 nM |
| O=C(Nc1cccc2[nH]ncc12)c1cc(N(CC2CC2)C2CCCCC2)ncn1 [Example 1-127] | 48 nM | > 20000 nM |
| O=C(O)CCCS(=O)(=O)c1ccc(NC(=O)c2cc(N(CC3CC3)C3CCCCC3)ncn2)cc1 [Example 1-132] | 40 nM | 85 nM |
